How the values were obtained:
[1] = molecular target: MAP kinase-interacting serine/threonine-protein kinase 2 (Homo sapiens) (UniProt Q9HBH9); conditions: Compound concentration 100.0 nM
[2] = molecular target: Serine/threonine-protein kinase WNK2 (Homo sapiens) (UniProt Q9Y3S1); conditions: Compound concentration 100.0 nM
[3] = molecular target: Platelet-derived growth factor receptor alpha (Homo sapiens) (UniProt P16234); conditions: Compound concentration 100.0 nM
[4] = molecular target: Mitogen-activated protein kinase kinase kinase kinase 2 (Homo sapiens) (UniProt Q12851); conditions: Compound concentration 100.0 nM
[5] = test system: ALK tyrosine kinase receptor (Homo sapiens), Q9UM73 [L1196M]; conditions: Compound concentration 100.0 nM
[6] = molecular target: Serine/threonine-protein kinase Chk2 (Homo sapiens) (UniProt O96017); conditions: Compound concentration 100.0 nM
Sequence of Serine/threonine-protein kinase Chk2 (Homo sapiens) (O96017 whole entry): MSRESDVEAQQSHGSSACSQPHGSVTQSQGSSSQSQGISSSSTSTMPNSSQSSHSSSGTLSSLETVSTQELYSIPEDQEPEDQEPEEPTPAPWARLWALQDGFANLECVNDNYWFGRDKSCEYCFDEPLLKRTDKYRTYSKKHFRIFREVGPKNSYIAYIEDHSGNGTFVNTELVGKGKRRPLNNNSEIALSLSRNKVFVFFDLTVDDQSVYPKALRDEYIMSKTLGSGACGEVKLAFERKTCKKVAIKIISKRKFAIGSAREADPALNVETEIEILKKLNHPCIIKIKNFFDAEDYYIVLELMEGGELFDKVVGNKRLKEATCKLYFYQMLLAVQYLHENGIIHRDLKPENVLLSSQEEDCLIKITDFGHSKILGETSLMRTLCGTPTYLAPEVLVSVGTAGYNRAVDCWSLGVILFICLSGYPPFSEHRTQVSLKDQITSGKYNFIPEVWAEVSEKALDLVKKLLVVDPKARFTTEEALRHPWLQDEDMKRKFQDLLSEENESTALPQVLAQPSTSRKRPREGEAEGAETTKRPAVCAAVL

[7] = molecular target: Rho-associated protein kinase 2 (Homo sapiens) (UniProt O75116); conditions: Compound concentration 100.0 nM
[8] = test system: Epidermal growth factor receptor (Homo sapiens), P00533 [UNDEFINED MUTATION]; conditions: Compound concentration 100.0 nM
[9] = molecular target: Phosphatidylinositol 3-kinase catalytic subunit type 3 (Homo sapiens) (UniProt Q8NEB9); conditions: Compound concentration 100.0 nM
[10] = molecular target: Vascular endothelial growth factor receptor 3 (Homo sapiens) (UniProt P35916); conditions: Compound concentration 100.0 nM
Sequence of Vascular endothelial growth factor receptor 3 (Homo sapiens) (P35916 whole entry): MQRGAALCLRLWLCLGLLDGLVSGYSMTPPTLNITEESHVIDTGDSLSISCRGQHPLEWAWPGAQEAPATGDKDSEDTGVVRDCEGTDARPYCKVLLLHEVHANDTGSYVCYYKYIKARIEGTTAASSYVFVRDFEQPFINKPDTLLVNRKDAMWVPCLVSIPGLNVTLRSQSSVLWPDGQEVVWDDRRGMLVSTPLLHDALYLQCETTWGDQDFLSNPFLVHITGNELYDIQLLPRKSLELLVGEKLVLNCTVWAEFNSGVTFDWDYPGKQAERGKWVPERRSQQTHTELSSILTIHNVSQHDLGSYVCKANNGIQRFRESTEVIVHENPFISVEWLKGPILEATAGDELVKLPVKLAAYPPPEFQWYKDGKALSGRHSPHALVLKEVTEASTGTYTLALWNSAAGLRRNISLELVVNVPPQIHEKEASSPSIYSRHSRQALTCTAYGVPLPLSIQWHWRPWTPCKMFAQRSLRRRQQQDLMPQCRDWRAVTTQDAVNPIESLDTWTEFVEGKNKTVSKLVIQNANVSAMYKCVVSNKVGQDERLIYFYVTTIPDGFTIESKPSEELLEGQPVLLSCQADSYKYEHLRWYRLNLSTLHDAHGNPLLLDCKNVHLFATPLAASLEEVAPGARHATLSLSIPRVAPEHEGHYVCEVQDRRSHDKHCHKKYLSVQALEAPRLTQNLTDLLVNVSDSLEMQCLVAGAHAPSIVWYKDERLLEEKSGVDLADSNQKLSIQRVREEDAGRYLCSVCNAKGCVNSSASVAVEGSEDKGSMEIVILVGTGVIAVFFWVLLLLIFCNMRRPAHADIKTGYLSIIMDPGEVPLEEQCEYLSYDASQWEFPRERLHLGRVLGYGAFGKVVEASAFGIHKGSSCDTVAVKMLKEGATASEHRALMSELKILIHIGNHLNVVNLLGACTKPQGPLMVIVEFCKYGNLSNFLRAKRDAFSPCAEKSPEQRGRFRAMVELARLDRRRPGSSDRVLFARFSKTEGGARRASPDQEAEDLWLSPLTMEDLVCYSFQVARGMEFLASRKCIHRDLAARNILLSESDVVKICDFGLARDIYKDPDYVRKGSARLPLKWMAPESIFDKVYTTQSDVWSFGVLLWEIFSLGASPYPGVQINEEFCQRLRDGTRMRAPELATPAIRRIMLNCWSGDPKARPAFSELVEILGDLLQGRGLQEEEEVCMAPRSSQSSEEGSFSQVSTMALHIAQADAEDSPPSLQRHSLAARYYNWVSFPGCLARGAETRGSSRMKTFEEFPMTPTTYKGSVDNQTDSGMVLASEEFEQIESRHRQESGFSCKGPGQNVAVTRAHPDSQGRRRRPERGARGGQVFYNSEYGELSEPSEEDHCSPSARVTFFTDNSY

[11] = molecular target: Serine/threonine-protein kinase 25 (Homo sapiens) (UniProt O00506); conditions: Compound concentration 100.0 nM
[12] = molecular target: Tyrosine-protein kinase CSK (Homo sapiens) (UniProt P41240); conditions: Compound concentration 100.0 nM
[13] = molecular target: Ribosomal protein S6 kinase alpha-6 (Homo sapiens) (UniProt Q9UK32); conditions: Compound concentration 100.0 nM
[14] = molecular target: Interleukin-1 receptor-associated kinase 3 (Homo sapiens) (UniProt Q9Y616); conditions: Compound concentration 100.0 nM
[15] = molecular target: Receptor-type tyrosine-protein kinase FLT3 (Homo sapiens) (UniProt P36888); conditions: Compound concentration 100.0 nM
[16] = molecular target: Mitogen-activated protein kinase kinase kinase 1 (Homo sapiens) (UniProt Q13233); conditions: Compound concentration 100.0 nM
Sequence of Mitogen-activated protein kinase kinase kinase 1 (Homo sapiens) (Q13233 whole entry): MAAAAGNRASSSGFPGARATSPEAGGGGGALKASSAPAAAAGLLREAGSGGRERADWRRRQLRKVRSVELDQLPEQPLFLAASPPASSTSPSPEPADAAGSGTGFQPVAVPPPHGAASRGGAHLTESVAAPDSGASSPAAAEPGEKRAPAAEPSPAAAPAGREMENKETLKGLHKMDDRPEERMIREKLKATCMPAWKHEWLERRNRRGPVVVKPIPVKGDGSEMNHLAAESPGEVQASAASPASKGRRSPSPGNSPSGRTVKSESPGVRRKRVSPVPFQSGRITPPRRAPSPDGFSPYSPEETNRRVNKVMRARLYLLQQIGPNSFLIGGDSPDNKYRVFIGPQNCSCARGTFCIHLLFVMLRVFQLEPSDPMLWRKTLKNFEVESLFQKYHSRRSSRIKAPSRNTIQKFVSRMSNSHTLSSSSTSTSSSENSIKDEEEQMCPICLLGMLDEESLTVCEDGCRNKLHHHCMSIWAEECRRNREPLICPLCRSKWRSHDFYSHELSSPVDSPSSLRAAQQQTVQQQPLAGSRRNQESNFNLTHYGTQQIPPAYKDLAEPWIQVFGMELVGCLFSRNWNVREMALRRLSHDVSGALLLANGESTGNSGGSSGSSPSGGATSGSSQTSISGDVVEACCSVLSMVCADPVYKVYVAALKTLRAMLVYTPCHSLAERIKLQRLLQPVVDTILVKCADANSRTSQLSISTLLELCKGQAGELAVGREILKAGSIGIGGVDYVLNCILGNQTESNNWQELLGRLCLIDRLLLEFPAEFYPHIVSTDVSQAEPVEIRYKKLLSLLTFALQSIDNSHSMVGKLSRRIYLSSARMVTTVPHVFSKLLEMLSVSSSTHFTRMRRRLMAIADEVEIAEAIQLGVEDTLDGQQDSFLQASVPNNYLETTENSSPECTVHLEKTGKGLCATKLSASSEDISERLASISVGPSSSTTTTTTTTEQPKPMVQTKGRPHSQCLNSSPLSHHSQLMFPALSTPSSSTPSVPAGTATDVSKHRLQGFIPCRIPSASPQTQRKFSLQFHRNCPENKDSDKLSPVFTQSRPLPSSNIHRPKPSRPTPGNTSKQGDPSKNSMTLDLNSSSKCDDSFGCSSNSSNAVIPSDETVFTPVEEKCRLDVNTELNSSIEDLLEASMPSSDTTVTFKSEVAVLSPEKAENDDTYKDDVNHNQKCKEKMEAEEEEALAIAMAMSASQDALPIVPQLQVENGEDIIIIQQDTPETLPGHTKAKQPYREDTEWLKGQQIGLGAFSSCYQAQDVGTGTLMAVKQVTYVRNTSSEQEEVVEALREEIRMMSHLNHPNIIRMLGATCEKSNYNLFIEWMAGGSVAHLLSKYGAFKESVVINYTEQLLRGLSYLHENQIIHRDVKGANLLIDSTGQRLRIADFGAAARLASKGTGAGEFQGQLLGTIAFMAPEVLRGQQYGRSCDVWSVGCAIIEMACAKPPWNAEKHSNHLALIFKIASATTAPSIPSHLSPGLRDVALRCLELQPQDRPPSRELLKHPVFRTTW

[17] = molecular target: cAMP-dependent protein kinase catalytic subunit alpha (Homo sapiens) (UniProt P17612); conditions: Compound concentration 100.0 nM
[18] = test system: Mast/stem cell growth factor receptor Kit (Homo sapiens), P10721 [D816V]; conditions: Compound concentration 100.0 nM
[19] = molecular target: Serine/threonine-protein kinase N2 (Homo sapiens) (UniProt Q16513); conditions: Compound concentration 100.0 nM
[20] = molecular target: Dual specificity mitogen-activated protein kinase kinase 6 (Homo sapiens) (UniProt P52564); conditions: Compound concentration 100.0 nM
[21] = molecular target: Dual specificity testis-specific protein kinase 1 (Homo sapiens) (UniProt Q15569); conditions: Compound concentration 100.0 nM
[22] = molecular target: Receptor-interacting serine/threonine-protein kinase 1 (Homo sapiens) (UniProt Q13546); conditions: Compound concentration 100.0 nM
[23] = molecular target: Calcium-dependent protein kinase 1 (Plasmodium falciparum) (UniProt P62344); conditions: Compound concentration 100.0 nM
[24] = molecular target: TGF-beta receptor type-1 (Homo sapiens) (UniProt P36897); conditions: Compound concentration 100.0 nM
[25] = molecular target: 5-hydroxytryptamine receptor 6 (Homo sapiens) (UniProt P50406); conditions: Compound concentration 10.0 uM
[26] = molecular target: Platelet-derived growth factor receptor beta (Homo sapiens) (UniProt P09619); conditions: Compound concentration 100.0 nM
Sequence of Platelet-derived growth factor receptor beta (Homo sapiens) (P09619 whole entry): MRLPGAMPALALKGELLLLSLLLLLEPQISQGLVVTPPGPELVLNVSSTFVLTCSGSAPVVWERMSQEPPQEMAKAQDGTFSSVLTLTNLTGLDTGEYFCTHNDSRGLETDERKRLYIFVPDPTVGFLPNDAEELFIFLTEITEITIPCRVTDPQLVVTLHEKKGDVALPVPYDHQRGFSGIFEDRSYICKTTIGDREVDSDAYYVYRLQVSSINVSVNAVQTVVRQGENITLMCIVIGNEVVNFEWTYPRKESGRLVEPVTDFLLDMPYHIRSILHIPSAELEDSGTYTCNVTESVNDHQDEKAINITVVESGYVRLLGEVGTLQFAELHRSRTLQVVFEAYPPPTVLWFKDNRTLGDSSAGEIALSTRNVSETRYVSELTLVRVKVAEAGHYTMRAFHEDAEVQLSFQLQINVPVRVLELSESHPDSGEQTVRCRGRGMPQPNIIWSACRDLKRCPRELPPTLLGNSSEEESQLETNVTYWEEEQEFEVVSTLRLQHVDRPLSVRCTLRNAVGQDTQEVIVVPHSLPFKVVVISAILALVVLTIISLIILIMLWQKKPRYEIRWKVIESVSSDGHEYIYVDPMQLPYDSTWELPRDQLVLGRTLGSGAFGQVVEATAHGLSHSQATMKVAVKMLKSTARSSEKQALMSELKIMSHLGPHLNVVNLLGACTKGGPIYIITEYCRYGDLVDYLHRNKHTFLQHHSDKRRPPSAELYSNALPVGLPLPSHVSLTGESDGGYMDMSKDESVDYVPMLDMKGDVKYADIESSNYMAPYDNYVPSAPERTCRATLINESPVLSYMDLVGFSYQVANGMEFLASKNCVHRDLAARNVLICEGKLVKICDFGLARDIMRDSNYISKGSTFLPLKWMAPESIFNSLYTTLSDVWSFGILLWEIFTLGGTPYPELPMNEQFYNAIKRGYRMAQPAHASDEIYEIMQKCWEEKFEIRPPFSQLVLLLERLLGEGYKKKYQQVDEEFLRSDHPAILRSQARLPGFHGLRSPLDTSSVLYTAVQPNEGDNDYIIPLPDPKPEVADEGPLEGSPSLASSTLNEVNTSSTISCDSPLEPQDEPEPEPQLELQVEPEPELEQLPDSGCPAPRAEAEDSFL

[27] = molecular target: 5-hydroxytryptamine receptor 2B (Homo sapiens) (UniProt P41595); conditions: Compound concentration 10.0 uM
[28] = molecular target: Inhibitor of nuclear factor kappa-B kinase subunit alpha (Homo sapiens) (UniProt O15111); conditions: Compound concentration 100.0 nM
[29] = molecular target: Tyrosine-protein kinase Lyn (Homo sapiens) (UniProt P07948); conditions: Compound concentration 100.0 nM
[30] = molecular target: Ephrin type-A receptor 4 (Homo sapiens) (UniProt P54764); conditions: Compound concentration 100.0 nM
[31] = molecular target: Dual specificity tyrosine-phosphorylation-regulated kinase 2 (Homo sapiens) (UniProt Q92630); conditions: Compound concentration 100.0 nM
[32] = molecular target: T1, Muscarinic acetylcholine receptor M2 (Homo sapiens) (UniProt P08172); conditions: Compound concentration 10.0 uM
T1 sequence (whole entry): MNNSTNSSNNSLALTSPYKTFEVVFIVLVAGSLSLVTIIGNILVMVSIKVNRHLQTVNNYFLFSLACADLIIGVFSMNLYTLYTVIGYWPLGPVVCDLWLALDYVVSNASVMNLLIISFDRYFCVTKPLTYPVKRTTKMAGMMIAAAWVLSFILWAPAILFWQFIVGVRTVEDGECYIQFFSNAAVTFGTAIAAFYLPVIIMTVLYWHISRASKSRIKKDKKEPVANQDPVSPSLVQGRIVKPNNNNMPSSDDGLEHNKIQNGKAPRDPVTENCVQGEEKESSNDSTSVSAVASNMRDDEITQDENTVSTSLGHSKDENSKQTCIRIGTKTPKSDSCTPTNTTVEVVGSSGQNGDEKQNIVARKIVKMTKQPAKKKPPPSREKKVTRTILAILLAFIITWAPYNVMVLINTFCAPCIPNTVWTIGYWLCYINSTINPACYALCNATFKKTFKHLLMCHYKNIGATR

[33] = molecular target: Tyrosine-protein kinase Srms (Homo sapiens) (UniProt Q9H3Y6); conditions: Compound concentration 100.0 nM
[34] = test system: Receptor-type tyrosine-protein kinase FLT3 (Homo sapiens), P36888 [K663Q]; conditions: Compound concentration 100.0 nM
[35] = molecular target: Tyrosine-protein kinase JAK3 (Homo sapiens) (UniProt P52333); conditions: Compound concentration 100.0 nM
[36] = test system: Phosphatidylinositol 4,5-bisphosphate 3-kinase catalytic subunit alpha isoform (Homo sapiens), P42336 [Q546K]; conditions: Compound concentration 100.0 nM
[37] = molecular target: Fibroblast growth factor receptor 1 (Homo sapiens) (UniProt P11362); conditions: Compound concentration 100.0 nM
[38] = molecular target: Protein kinase C eta type (Homo sapiens) (UniProt P24723); conditions: Compound concentration 100.0 nM
[39] = molecular target: RAC-gamma serine/threonine-protein kinase (Homo sapiens) (UniProt Q9Y243); conditions: Compound concentration 100.0 nM
Sequence of RAC-gamma serine/threonine-protein kinase (Homo sapiens) (Q9Y243 whole entry): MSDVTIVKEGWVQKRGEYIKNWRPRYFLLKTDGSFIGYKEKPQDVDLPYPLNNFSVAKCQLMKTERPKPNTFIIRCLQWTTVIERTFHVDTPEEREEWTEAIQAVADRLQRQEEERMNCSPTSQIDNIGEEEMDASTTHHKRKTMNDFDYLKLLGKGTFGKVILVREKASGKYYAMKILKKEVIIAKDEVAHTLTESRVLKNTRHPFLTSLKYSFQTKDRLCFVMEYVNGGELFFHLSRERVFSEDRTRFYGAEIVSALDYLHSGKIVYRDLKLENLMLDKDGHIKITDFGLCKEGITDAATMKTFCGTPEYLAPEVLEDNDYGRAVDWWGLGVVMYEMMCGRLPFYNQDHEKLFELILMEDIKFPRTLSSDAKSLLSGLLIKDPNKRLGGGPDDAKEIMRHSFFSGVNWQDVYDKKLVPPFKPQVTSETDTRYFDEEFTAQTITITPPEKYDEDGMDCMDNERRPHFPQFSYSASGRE

Row | SMILES | residual activity [1] | residual activity [2] | residual activity [3] | residual activity [4] | residual activity [5] | residual activity [6] | residual activity [7] | residual activity [8] | residual activity [9] | residual activity [10] | residual activity [11] | residual activity [12] | residual activity [13] | residual activity [14] | residual activity [15] | residual activity [16] | residual activity [17] | residual activity [18] | residual activity [19] | residual activity [20] | also measured
1 | COCCOc1nc(-c2ccc(Cl)nc2)nc2c1CN(C(=O)c1ncn3ccccc13)CC2 [THPP-1] | 100% | 100% | 100% | 100% | 100% | 100% | 76% | 80% | 100% | 88% | 100% | 100% | 100% | 100% | 100% | 100% | 82% | 100% | 55% | 100% | residual activity [21]: 100%; residual activity [22]: 100%; residual activity [23]: 100%; residual activity [24]: 100%; inhibition [25]: -4.55%; residual activity [26]: 100%; inhibition [27]: 3.25%; residual activity [28]: 100%; residual activity [29]: 73%; residual activity [30]: 100%; residual activity [31]: 100%; inhibition [32]: 19.3%; residual activity [33]: 100%; residual activity [34]: 100%; residual activity [35]: 93%; residual activity [36]: 87%; residual activity [37]: 100%; residual activity [38]: 97%; residual activity [39]: 47%
2 | CC(C)CC(=O)N1CCc2nc(-c3ccc(Br)cc3)nc(N(C)Cc3ccccc3)c2C1 [THPP-1-NC] | 73% | 100% | 98% | 100% | 100% | 100% | 74% | 100% | 100% | 100% | 100% | 100% | 100% | 100% | 100% | 100% | 89% | 100% | 80% | 100% | residual activity [21]: 100%; residual activity [22]: 100%; residual activity [23]: 100%; residual activity [24]: 100%; inhibition [25]: 0.81%; residual activity [26]: 100%; inhibition [27]: 7.85%; residual activity [28]: 100%; residual activity [29]: 88%; residual activity [30]: 100%; residual activity [31]: 84%; inhibition [32]: 18.2%; residual activity [33]: 100%; residual activity [34]: 100%; residual activity [35]: 98%; residual activity [36]: 97%; residual activity [37]: 100%; residual activity [38]: 94%; residual activity [39]: 64%
